Efficacy and Kb data for three compounds are collected here from ChEMBL document CHEMBL1138805, “NO-sartans: a new class of pharmacodynamic hybrids as cardiovascular drugs” (J Med Chem, 2004).

Common to all, as to format: functional
Assay [1] in a line: Vasorelaxing activity in the presence of eserin was determined.
A short description of assay [2]: Vasorelaxing activity was determined.
Assay [3] addresses T1, Type-1 angiotensin II receptor (Homo sapiens) (UniProt P30556).
T1 sequence (whole entry): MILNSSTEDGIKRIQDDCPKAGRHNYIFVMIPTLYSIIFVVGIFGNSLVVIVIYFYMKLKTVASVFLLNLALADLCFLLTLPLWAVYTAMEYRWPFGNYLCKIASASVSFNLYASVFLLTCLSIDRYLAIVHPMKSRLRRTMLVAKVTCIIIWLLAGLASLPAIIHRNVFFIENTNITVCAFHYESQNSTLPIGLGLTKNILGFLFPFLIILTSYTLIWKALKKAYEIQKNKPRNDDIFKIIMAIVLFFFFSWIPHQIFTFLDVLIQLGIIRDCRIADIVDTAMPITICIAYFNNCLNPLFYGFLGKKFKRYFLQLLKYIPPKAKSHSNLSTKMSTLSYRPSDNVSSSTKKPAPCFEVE
Kind of assay: Antagonistic activity against Angiotensin II receptor type 1.

Assay [4] is described as follows: Nitric oxide releasing effect was determined.
In assay [5] the target is T1, Type-1 angiotensin II receptor (Homo sapiens). The assay can be described thus: Antagonistic activity against Angiotensin II receptor type 1 in presence of eserin.

For the compound `O=C(O)c1cccc(CO[N+](=O)[O-])c1`, the Efficacy in assay [1] was determined as 71; in assay [2], 67%.

For orientation: Kb means the equilibrium dissociation constant of an antagonist, usually derived from a functional assay. `CCCCc1nc(Cl)c(COC(=O)CCCCO[N+](=O)[O-])n1Cc1ccc(-c2ccccc2-c2nn[nH]n2)cc1` registered a Kb in assay [3] of 0.016 µM. Also, the Efficacy in assay [2] was 95%; in assay [4], 23.

Take `CCCCc1nc(Cl)c(COC(=O)c2cccc(CO[N+](=O)[O-])c2)n1Cc1ccc(-c2ccccc2-c2nn[nH]n2)cc1`: the Kb in assay [3] turned out to be 0.006 µM; in assay [5], 0.04 µM. Further, the Efficacy in assay [1] was determined as 91; in assay [2], 92%; in assay [4] it was 34.
